Measured values reported in paper PMC12040169 (PLOS Biology, 2025).

Assay: in vitro
Details: human, hela cells, % viability

| SMILES | viability at 28.5 h, 10 µM [%] | viability at 28.5 h, 10 µM (bulk resorufin, single well) [%] |
| --- | --- | --- |
| COc1cc(/C=N/NC(N)=O)ccc1OC(=O)c1sc2ccccc2c1Cl [CBK262265] | 85 |  |
| C(=N\c1nc2ccccc2n1CCN1CCOCC1)/c1ccc2c(c1)OCO2 [CBK262270] | 109 |  |
| O=C(Oc1cccc(NC(=O)c2ccco2)c1)c1cccc(S(=O)(=O)N2CCOCC2)c1 [CBK262272] | 97.2 |  |
| O=[N+]([O-])c1ccc(CNCCc2c[nH]c3ccccc23)cc1 [CBK262275] | 80.4 |  |
| COc1ccc(C(=O)/C=C/Nc2ccc(S(=O)(=O)NC(=N)N)cc2)cc1 [CBK262277] | 84.1 |  |
| O=C/C(=C\Nc1ccc(S(=O)(=O)N2CCCCC2)cc1)c1nc2ccccc2o1 [CBK262281] | 99.2 |  |
| O=C(/C=C/c1cccc([N+](=O)[O-])c1)NCCN1CCOCC1 [CBK262283] | 90.5 |  |
| CCc1cc2c(=O)c(-c3nc4ccccc4s3)coc2c(CN2CCCCC2)c1O [CBK262284] | 86.1 |  |
| COc1cc(-c2nc3ccccn3c2/N=C/c2ccc(-c3ccc([N+](=O)[O-])cc3)o2)ccc1O [CBK262288] | 79.8 |  |
| O=C(N/N=C\c1cccc(OC(=O)c2cccs2)c1)c1ccc([N+](=O)[O-])cc1 [CBK262289] | 77.3 |  |
| CC(C)Cn1c(=O)c(C(=O)Nc2ccccc2S(N)(=O)=O)c(O)c2ccccc21 [CBK262290] | 93.1 |  |
| O=S(=O)(NCc1ccccn1)c1ccc(Br)cc1Br [CBK262291] | 93.2 |  |
| COc1ccccc1CCNCc1ccc([N+](=O)[O-])cc1 [CBK262292] |  | 93.3 |
| O=C(COc1cccc(Cl)c1)N/N=C\c1ccc(C(=O)O)cc1 [CBK262293] | 102 |  |
| OCCNc1nc2cc(Cl)ccc2[nH]1 [CBK262295] | 101 |  |
| O=C(N/N=C/c1cc(O)c(Br)cc1Br)c1ccncc1 [CBK262297] | 76.8 |  |
| O=[N+]([O-])c1ccc(C2CNC(c3ccccc3O)O2)cc1 (stereo not drawn) [CBK262298] | 94 |  |
| O=C(c1ccoc1)N1CCN(S(=O)(=O)c2ccc3c(c2)Cc2cc(S(=O)(=O)N4CCN(C(=O)c5ccco5)CC4)ccc2-3)CC1 [CBK262299] | 113 |  |
| O=C1CCCN1CP(=O)(O)CN1CCCCC1 [CBK262302] | 85.6 |  |
| COc1ccccc1/C=C/C1=NN(c2ccc(F)cc2)C(c2ccccc2OC)C1 (stereo not drawn) [CBK262303] | 81.1 |  |
| O=C(O)c1cc(C(=O)O)c2ccccc2n1 [CBK262304] | 82.1 |  |

| SMILES | viability at 28.5 h, 10 µM [%] | viability at 28.5 h, 10 µM (bulk resorufin, single well) [%] |
| --- | --- | --- |
| Cc1ccc(/N=N/c2c(O)c(C(=O)Nc3ccc4c(c3)c(=O)[nH]c3ccccc34)cc3ccccc23)c(Cl)c1 [CBK262306] | 92.7 |  |
| CC(=O)OC(Cn1c2ccccc2c2ccccc21)Cn1c2ccccc2c2ccccc21 [CBK262307] | 104 |  |
| O=P(O)(CN1CCCCCC1)CN1CCCCCC1 [CBK262311] | 92.1 |  |
| O=P(O)(CCc1ccccn1)CN1CCCCC1 [CBK262312] | 97.2 |  |
| OCCNc1nc(-c2cccnc2)nc2ccccc12 [CBK262314] | 105 |  |
| O=c1c2cnn(-c3ccccc3)c2nc(Cc2ccccc2)n1-c1cccc2ccccc12 [CBK262316] | 82.1 |  |
| O=P(O)(CCc1ccccc1)CN1CCCCC1 [CBK262318] | 78.6 |  |
| O=C(O)CCSc1c[nH]c2ccccc12 [CBK262319] | 94.5 |  |
| O=C(Nc1ccc(-c2ccc(NC(=O)c3ccncc3)cc2)cc1)c1ccncc1 [CBK262321] | 98.9 |  |
| O=P(O)(CCc1ccncc1)CN1CCCCC1 [CBK262323] | 104 |  |
| O=C(COC(=O)c1ccc2c(c1)C(=O)N(c1cccc(Cl)c1)C2=O)c1ccc(Br)cc1 [CBK262324] | 94 |  |
| O=C(CN(c1ccccc1)S(=O)(=O)c1ccccc1[N+](=O)[O-])NC1CCCCC1 [CBK262328] | 89.3 |  |
| Fc1ccc(Br)cc1SCCc1ccccn1 [CBK262330G] | 86.7 |  |
| O=C(Cn1nnc(-c2ccccc2Cl)n1)N/N=C/c1cn(Cc2ccc(Cl)cc2)c2ccccc12 [CBK262333] | 107 |  |
| O=[N+]([O-])c1ccc(-c2nc3ccc(Br)cn3[n+]2[O-])cc1 [CBK262335] | 96.5 |  |
| CN1CCC(=NNC(=O)CN(c2ccc(Oc3ccccc3)cc2)S(C)(=O)=O)CC1 [CBK262338] | 93.2 |  |
| CSc1ccc(/C=C(\C#N)c2nn(-c3ccccc3)c(N)c2C#N)cc1 [CBK262339] | 105 |  |
| COc1ccc(/C=N/NC(=O)CCn2c3ccccc3c3ccccc32)cc1O [CBK262343] | 46 |  |
| O=C(NCCNc1ccc([N+](=O)[O-])cc1Cl)c1ccc(F)cc1 [CBK262344] | 86.6 |  |
| COc1ccc(CCN(C(C)=O)C2CC(=O)N(c3ccccc3)C2=O)cc1OC (stereo not drawn) [CBK262349] | 89.5 |  |
| COc1cc(/C=N/NC(=O)CCn2c3ccc(Cl)cc3c3cc(Cl)ccc32)ccc1O [CBK262351] | 112 |  |

| SMILES | viability at 28.5 h, 10 µM [%] | viability at 28.5 h, 10 µM (bulk resorufin, single well) [%] |
| --- | --- | --- |
| N#C/C(=C\C=C\c1ccc([N+](=O)[O-])cc1)c1nc(-c2cc3cc([N+](=O)[O-])ccc3oc2=O)cs1 [CBK262357] | 93.7 |  |
| Cc1cc(C)n(-c2cc(C)c3ccccc3n2)n1 [CBK262358] | 81.9 |  |
| O=C(O)CCSCc1ccc([N+](=O)[O-])cc1 [CBK262359] | 103 |  |
| O=C(CSc1nc2ccccc2s1)OCC(=O)c1cccc([N+](=O)[O-])c1 [CBK262361] | 111 |  |
| CC1(C)CC(NC(=O)C(=O)NCCc2ccc(Cl)cc2)CC(C)(C)N1 [CBK262363] | 83.8 |  |
| O=C(O)c1ccc(S(=O)(=O)NCC2CCCO2)cc1 (stereo not drawn) [CBK262364] | 79.8 |  |
| CCSc1nnc2c(n1)OC(C1CC=C(C)CC1)Nc1ccccc1-2 (stereo not drawn) [CBK262367] | 95.5 |  |
| N#C/C(=C\c1ccc(O)cc1)c1nc(-c2ccc3c(c2)OCO3)cs1 [CBK262370] | 96.8 |  |
| O=C(O)c1ccc(/C=N/Nc2cccc3cccnc23)cc1 [CBK262372] | 74.4 |  |
| Cc1cccc2c1[nH]c1nc(N/N=C\c3ccc(-c4cccc([N+](=O)[O-])c4)o3)nnc12 [CBK262373] | 96 |  |
| COc1ccc(-c2csc(/C(C#N)=C/Nc3ccc(S(=O)(=O)Nc4nccs4)cc3)n2)cc1 [CBK262374] | 94.6 |  |
| CC(=O)Nc1ccc(N/C=C(/C#N)c2nc(-c3ccc([N+](=O)[O-])cc3)cs2)cc1 [CBK262377] | 106 |  |
| Cc1cccc(Nc2nc3nonc3[nH]/c2=N\N=C/c2cn(Cc3ccc(Cl)cc3Cl)c3ccccc23)c1C [CBK262378] | 93.3 |  |
| COc1cc(C2C3=C(CC(C)(C)CC3=O)OC3=C2C(=O)CC(C)(C)C3)ccc1OCC(=O)O [CBK262379] | 94.8 |  |
| CN1CCN(c2cc(N3CCN(C)CC3)c([N+](=O)[O-])cc2C2Nc3ccc4ccccc4c3C3=C2C(=O)CC(C)(C)C3)CC1 (stereo not drawn) [CBK262381] | 93.9 |  |
| CN1CCN(C(=O)CCCN2C(=O)c3cccc4cccc(c34)C2=O)CC1 [CBK262383] | 96.9 |  |
| O=S(=O)(Oc1ccc2ccccc2c1)c1ccc2c(c1)Cc1cc(S(=O)(=O)Oc3ccc4ccccc4c3)ccc1-2 [CBK262385] | 105 |  |
| COc1ccc(CN(/N=N/c2nonc2C)c2nonc2C)cc1[N+](=O)[O-] [CBK262386] | 99.3 |  |
| Cc1ccc(S(=O)(=O)N(CC(=O)O)c2cccc(Cl)c2)cc1 [CBK262387] | 91.7 |  |
| COC(=O)c1ccccc1NC(=O)C(C)Oc1ccc(Cl)cc1C (stereo not drawn) [CBK262388] | 79.2 |  |
| COc1ccc(N(C(C)C(=O)NN=C2CCN(C)CC2)S(C)(=O)=O)cc1 (stereo not drawn) [CBK262390] | 94.2 |  |

| SMILES | viability at 28.5 h, 10 µM [%] | viability at 28.5 h, 10 µM (bulk resorufin, single well) [%] |
| --- | --- | --- |
| O=C1NC(=S)NC(=O)C1=CNc1ccc(F)c(Cl)c1 [CBK262391] |  | 118 |
| Cc1cc(C)cc(OCC(=O)NNC(=O)CN2C(=O)c3ccccc3C2=O)c1 [CBK262394] | 91.4 |  |
| O=C(CN1C(=O)S/C(=C\c2ccc(Cl)cc2)C1=O)Nc1cc([N+](=O)[O-])ccc1O [CBK262396] | 90.4 |  |
| Cc1ccc(N(CC(=O)N/N=C/C(C)C)S(=O)(=O)c2ccccc2)c(C)c1 [CBK262397] | 92.5 |  |
| Cc1nonc1/N=N/N(CC(=O)N1CCOCC1)c1nonc1C [CBK262399] | 103 |  |
| O=C(N/N=C/c1c(O)ccc2ccccc12)c1cnccn1 [CBK262400] | 105 |  |
| O=C(CSc1ncccn1)N/N=C/c1ccncc1 [CBK262401] | 103 |  |
| COc1ccc(N(C(C)C(=O)N/N=C(\C)c2ccccc2O)S(C)(=O)=O)cc1 (stereo not drawn) [CBK262402] | 93.4 |  |
| CCOc1cc(/C=N/NC(=O)CSc2nc(C)cc(C)n2)ccc1O [CBK262405] | 96.1 |  |
| Cc1ccc2ccccc2c1CN(/N=N/c1nonc1C)c1nonc1C [CBK262412] | 99.6 |  |
| CN(C)c1ccc(NC(=O)C(Cc2ccccc2)N2C(=O)c3ccccc3C2=O)cc1 (stereo not drawn) [CBK262413] | 99.6 |  |
| COc1ccc(N(CC(=O)O)S(=O)(=O)c2ccccc2)c(OC)c1 [CBK262415] | 108 |  |
| CCc1nnc(NS(=O)(=O)c2ccc(N/C=C3\C(=O)N(c4ccc(Cl)cc4)N=C3C)cc2)s1 [CBK262416] | 110 |  |
| N#Cc1c(NC(=O)CSc2nnc3c(n2)[nH]c2ccccc23)sc2c1CCCC2 [CBK262417] | 93 |  |
| CS(=O)(=O)N(CC(=O)O)c1cccc2ccccc12 [CBK262420] | 101 |  |
| Cc1ccc(Cl)cc1N(CC(=O)O)S(=O)(=O)c1ccccc1 [CBK262424] | 93 |  |
| Cc1c(C)n(Cc2ccccc2)c2ccc(C(=O)OCCN3CCOCC3)cc12 [CBK262427] | 104 |  |
| Cc1c([N+](=O)[O-])c([N+](=O)[O-])nn1CC(=O)NCc1cccnc1 [CBK262428] |  | 97.2 |
| CC1=NN(c2nc(-c3ccc(Br)cc3)cs2)C(=O)C1/N=N/c1cccc(CO)c1 (stereo not drawn) [CBK262429] | 104 |  |
| Cc1cc(C)cc(CC(C)Cc2nc3ccccc3[nH]2)c1 (stereo not drawn) [CBK262432] | 92.3 |  |
| CC1=NN(c2nc(-c3cccc([N+](=O)[O-])c3)cs2)C(=O)C1/N=N/c1ccc(S(N)(=O)=O)cc1 (stereo not drawn) [CBK262434] | 94 |  |
